Experimental data published in ChEMBL document CHEMBL3526131, “Involvement of organic anion-transporting polypeptides in the hepatic uptake of dioscin in rats and humans” (Drug Metab Dispos, 2013).

Experiments:
Hepatocyte [1] = assay: Cellular uptake in Wistar rat hepatocytes at 5 uM after 2 mins; type: ADME, cell-based
Liver [2] = assay: Drug uptake in Wistar rat liver at 5 uM after 1 to 30 mins by LC-MS/MS analysis in presence of ibuprofen; type: ADME, tissue-based; conditions: in vivo
Liver [3] = assay: Drug uptake in Wistar rat liver at 5 uM after 15 mins by LC-MS/MS analysis; type: ADME, tissue-based; conditions: in vivo, 0.25 h
Hepatocyte [4] = assay: Cellular uptake in Wistar rat hepatocytes at 2.5 uM in presence of K+; type: ADME, cell-based
Hepatocyte [5] = assay: Cellular uptake in Wistar rat hepatocytes at 2.5 uM in presence of rifampicin; type: ADME, cell-based
Hepatocyte [6] = assay: Cellular uptake in Wistar rat hepatocytes at 2.5 uM in presence of glycyrrhizic acid; type: ADME, cell-based
Liver [7] = assay: Drug uptake in Wistar rat liver assessed as liver uptake index at 0.2 mg/kg, iv; type: ADME, organism-based; parameters: dose 0.2 mg/kg, route intravenous; conditions: in vivo
[8] = Drug uptake in MDCK2 cells at 2.5 uM after 30 to 180 mins by LC-MS/MS analysis; type: ADME, cell-based, Canis lupus familiaris; conditions: dog, mdck-ii
Liver [9] = assay: Drug uptake in Wistar rat liver at 5 uM after 1 to 30 mins by LC-MS/MS analysis in presence of rifampicin; type: ADME, tissue-based; conditions: in vivo
[10] = Drug uptake in Wistar rat liver assessed as hepatic extraction ratio at 2.5 uM after 1 to 60 mins in presence of rifampicin; type: ADME, tissue-based; conditions: with rifampicin, read-out: ERH
[11] = Fraction unbound in Wistar rat blood; type: ADME, tissue-based
Hepatocyte [12] = assay: Cellular uptake in Wistar rat hepatocytes at 2.5 uM in presence of Na+; type: ADME, cell-based
Liver [13] = assay: Drug uptake in Wistar rat liver at 5 uM after 1 to 30 mins by LC-MS/MS analysis in presence of digoxin; type: ADME, tissue-based; conditions: in vivo
[14] = Cellular uptake in Wistar rat hepatocytes at 0.2 to 2.5 uM; type: ADME, cell-based, Hepatocyte
[15] = molecular target: T1, Solute carrier organic anion transporter family member 1B3 (Homo sapiens, UniProt Q9NPD5); assay: (§1) Activity at OATP1B3 (unknown origin) expressed in HEK293 cells assessed as compound transport; type: ADME, cell-based; conditions: hek293
T1 sequence (Q9NPD5 whole entry): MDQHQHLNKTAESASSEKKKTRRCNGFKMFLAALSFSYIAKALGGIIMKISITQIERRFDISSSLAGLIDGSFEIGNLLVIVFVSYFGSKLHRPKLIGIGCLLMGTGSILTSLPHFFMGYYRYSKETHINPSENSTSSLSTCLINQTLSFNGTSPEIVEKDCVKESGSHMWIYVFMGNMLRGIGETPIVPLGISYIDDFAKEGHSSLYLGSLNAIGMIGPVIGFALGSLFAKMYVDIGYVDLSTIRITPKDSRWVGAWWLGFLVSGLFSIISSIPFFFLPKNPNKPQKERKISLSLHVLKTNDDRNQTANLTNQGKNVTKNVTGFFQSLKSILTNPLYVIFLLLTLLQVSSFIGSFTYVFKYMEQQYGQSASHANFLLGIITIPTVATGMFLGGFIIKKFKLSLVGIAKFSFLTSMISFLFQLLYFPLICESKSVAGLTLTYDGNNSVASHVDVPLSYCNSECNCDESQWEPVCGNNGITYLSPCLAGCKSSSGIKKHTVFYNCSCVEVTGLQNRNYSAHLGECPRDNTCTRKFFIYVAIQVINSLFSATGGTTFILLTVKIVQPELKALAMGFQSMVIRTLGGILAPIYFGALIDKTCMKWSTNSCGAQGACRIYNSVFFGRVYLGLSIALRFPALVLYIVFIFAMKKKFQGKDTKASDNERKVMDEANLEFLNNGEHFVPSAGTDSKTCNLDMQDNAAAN

OATP1B3 = molecular target: T2, OATP1B3 (Homo sapiens, UniProt Q9NPD5); assay: as §1; type: ADME, cell-based; conditions: HEK293 cells expressing OATP1B3
T2 sequence (Q9NPD5 whole entry): T1 sequence (Q9NPD5 whole entry)

Hepatocyte [16] = assay: Cellular uptake in Wistar rat hepatocytes at 2.5 uM in presence of TEA; type: ADME, cell-based
Hepatocyte [17] = assay: Cellular uptake in Wistar rat hepatocytes assessed as rate of drug transport per 10^6 cells at 0.2 to 2.5 uM; type: ADME, cell-based
Hepatocyte [18] = assay: Cellular uptake in Wistar rat hepatocytes at 2.5 uM in presence of cyclosporin A; type: ADME, cell-based
Liver [19] = assay: Drug uptake in Wistar rat liver at 5 uM after 1 to 30 mins by LC-MS/MS analysis in presence of glycyrrhizic acid; type: ADME, tissue-based; conditions: in vivo
Hepatocyte [20] = assay: Cellular uptake in Wistar rat hepatocytes at 2.5 uM after 2 mins; type: ADME, cell-based
[21] = Fraction unbound in Wistar rat plasma at 2.5 uM by LC-MS/MS analysis; type: ADME, cell-free
[22] = molecular target: T1, Solute carrier organic anion transporter family member 1B3; assay: Cellular uptake in HEK293 cells expressing OATP1B3 (unknown origin) assessed as inhibition of telmisartan-mediated drug transport; type: ADME, cell-based
Hepatocyte [23] = assay: Cellular uptake in Wistar rat hepatocytes at 2.5 uM in presence of PAH; type: ADME, cell-based
[24] = Plasma clearance in Wistar rat; type: ADME, organism-based
Liver [25] = assay: Drug uptake in Wistar rat liver assessed as liver uptake index at 0.2 mg/kg, iv in presence of cyclosporin A; type: ADME, organism-based; parameters: dose 0.2 mg/kg, route intravenous; conditions: in vivo
[26] = Clearance in human hepatocytes assessed per 10^6 cells; type: ADME, cell-based, Hepatocyte; conditions: read-out: CLH
[27] = Drug uptake in MDCK2 cells expressing OATP1B1 (unknown origin) at 2.5 uM after 30 to 180 mins by LC-MS/MS analysis; type: ADME, cell-based, Canis lupus familiaris; conditions: dog, mdck-ii
HEK293 = assay: Cellular uptake in HEK293 cells at 2.5 uM after 1 min; type: ADME, cell-based; conditions: human, hek293, 1 min
Liver [28] = assay: Drug uptake in Wistar rat liver assessed as liver uptake index at 0.2 mg/kg, iv in presence of rifampicin; type: ADME, organism-based; parameters: dose 0.2 mg/kg, route intravenous; conditions: in vivo
[29] = Intrinsic clearance in human; type: ADME, organism-based; conditions: in vivo
Liver [30] = assay: Drug uptake in Wistar rat liver at 5 uM after 1 to 30 mins by LC-MS/MS analysis in presence of cyclosporin A; type: ADME, tissue-based; conditions: in vivo
Hepatocyte [31] = assay: Cellular uptake in Wistar rat hepatocytes at 2.5 uM in presence of digoxin; type: ADME, cell-based
Liver [32] = assay: Drug uptake in Wistar rat liver at 5 uM after 1 to 30 mins by LC-MS/MS analysis in presence of TEA; type: ADME, tissue-based; conditions: in vivo
[33] = Drug uptake in Wistar rat liver assessed as hepatic extraction ratio at 2.5 uM after 1 to 60 mins in presence of cyclosporin A; type: ADME, tissue-based; conditions: with cyclosporin A, read-out: ERH
[34] = molecular target: T1, Solute carrier organic anion transporter family member 1B3; assay: Cellular uptake in HEK293 cells expressing OATP1B3 (unknown origin) assessed as inhibition of cyclosporin A-mediated drug transport; type: ADME, cell-based
Liver [35] = assay: Drug uptake in Wistar rat liver at 2.5 uM after 30 mins; type: ADME, tissue-based; conditions: in vivo, 0.5 h
Hepatocyte [36] = assay: Cellular uptake in Wistar rat hepatocytes at 2.5 uM in presence of ibuprofen; type: ADME, cell-based
[37] = Ratio of drug level in blood to plasma in Wistar rat at 2.5 uM after 5 mins by LC-MS/MS analysis; type: ADME
[38] = molecular target: T1, Solute carrier organic anion transporter family member 1B3; assay: Cellular uptake in HEK293 cells expressing OATP1B3 (unknown origin) assessed as inhibition of (-)-epigallocatechin gallate-mediated drug transport; type: ADME, cell-based
Liver [39] = assay: Drug uptake in Wistar rat liver at 5 uM after 1 to 30 mins by LC-MS/MS analysis in presence of PAH; type: ADME, tissue-based; conditions: in vivo
[40] = Drug uptake in MDCK2 cells expressing OATP1B1/MRP2 (unknown origin) at 2.5 uM after 30 to 180 mins by LC-MS/MS analysis; type: ADME, cell-based, Canis lupus familiaris; conditions: dog, mdck-ii
[41] = Drug uptake in Wistar rat liver assessed as hepatic extraction ratio at 2.5 uM after 1 to 60 mins; type: ADME, tissue-based; conditions: read-out: ERH
[42] = molecular target: T1, Solute carrier organic anion transporter family member 1B3; assay: Cellular uptake in HEK293 cells expressing OATP1B3 (unknown origin) assessed as inhibition of rifampicin-mediated drug transport; type: ADME, cell-based
OATP1B1 = assay: Efflux ratio of permeability from basolateral to apical side to apical to basolateral side in MDCK2 cells expressing OATP1B1 (unknown origin) at 1 uM after 30 to 180 mins by LC-MS/MS analysis; type: ADME, cell-based, Canis lupus familiaris, MDCK-II; conditions: dog, MDCK
OATP1B1/MRP2 = assay: Efflux ratio of permeability from basolateral to apical side to apical to basolateral side in MDCK2 cells expressing OATP1B1/MRP2 (unknown origin) at 1 uM after 30 to 180 mins by LC-MS/MS analysis; type: ADME, cell-based, Canis lupus familiaris, MDCK-II; conditions: dog

For `C[C@H]1O[C@@H](O[C@H]2[C@@H](O)C[C@H](O[C@H]3[C@@H](O)C[C@H](O[C@H]4CC[C@@]5(C)[C@H](CC[C@@H]6[C@@H]5C[C@@H](O)[C@]5(C)[C@@H](C7=CC(=O)OC7)CC[C@]65O)C4)O[C@@H]3C)O[C@@H]2C)C[C@H](O)[C@@H]1O` [DIGOXIN], the Drug uptake (Hepatocyte [1]) was “Active”.

In the case of `C[C@@H]1CC[C@@]2(OC1)O[C@H]1C[C@H]3[C@@H]4CC=C5C[C@@H](O[C@@H]6O[C@H](CO)[C@@H](O[C@@H]7O[C@@H](C)[C@H](O)[C@@H](O)[C@H]7O)[C@H](O)[C@H]6O[C@@H]6O[C@@H](C)[C@H](O)[C@@H](O)[C@H]6O)CC[C@]5(C)[C@H]4CC[C@]3(C)[C@H]1[C@@H]2C` [DIOSCIN], the Drug uptake (Liver [2]) is reported as “Not Active”, the Drug uptake (Liver [3]) is reported as “Active” and the Drug uptake (Hepatocyte [4]) is reported as “Active”. For the same molecule, the Drug uptake (Hepatocyte [5]) was “Not Active”, the Drug uptake (Hepatocyte [6]) was “Not Active” and the LUI (Liver [7]) was 11.9%. The Drug uptake [8] was “Active”, the Drug uptake (Liver [9]) was “Not Active” and the hepatic extraction ratio at 2.5 µM [10] was 0.082. For the same molecule, the fraction unbound [11] was 0.079, the Drug uptake (Hepatocyte [12]) was “Active” and the Drug uptake (Liver [13]) was “Not Active”. For the same molecule, the Km at up to 2.5 µM [14] was 3.75 µM, the Vmax [15] was 730 pmol/min/mg and the Km (OATP1B3) was 2.08 µM. For the same molecule, the Drug uptake (Hepatocyte [16]) was “Active”, the Vmax (Hepatocyte [17]) was 588 pmol/min and the Drug uptake (Hepatocyte [18]) was “Not Active”. For the same molecule, the Drug uptake (Liver [19]) was “Not Active”, the Drug uptake (Hepatocyte [20]) was “Active” and the fraction unbound at 2.5 µM [21] was 0.061. The Ki [22] was 1.03 µM, the Drug uptake (Hepatocyte [23]) was “Active” and the clearance [24] was 0.232 L/h/kg. The LUI (Liver [25]) was 6.9%, the hepatocyte CLint [26] was 35 µL/min/1e6 cells and the Drug uptake [27] was “Active”. The Drug uptake (HEK293) was “Active”, the LUI (Liver [28]) was 5.5% and the CLint scaled [29] was 10.1 L/h/kg. The Drug uptake (Liver [30]) was “Not Active”, the Drug uptake (Hepatocyte [31]) was “Not Active” and the Drug uptake (Liver [32]) was “Active”. For the same molecule, the hepatic extraction ratio at 2.5 µM [33] was 0.074, the Ki [34] was 1.43 µM and the Drug uptake (Liver [35]) was “Active”. The Drug uptake (Hepatocyte [36]) was “Not Active”, the blood plasma ratio at 5 min, 2.5 µM [37] was 0.771 and the Ki [38] was 8.29 µM. The Drug uptake (Liver [39]) was “Active”, the Drug uptake [40] was “Active” and the hepatic extraction ratio at 2.5 µM [41] was 0.15. The Ki [42] was 4.55 µM.

`C[C@]12CC[C@@H]3c4ccc(OS(=O)(=O)O)cc4CC[C@H]3[C@@H]1CCC2=O` [ESTRONE SULFURIC ACID] gave an efflux ratio at 1 µM (OATP1B1) of 2.8 and an efflux ratio at 1 µM (OATP1B1/MRP2) of 4.2.
